Test results reported in US10864196B2, “Modulators of the integrated stress pathway” (Calico Life Sciences LLC, priority 2016, dated 2020).

System: HEK293T cells carrying the ATF4 luciferase reporter
Assay: ATF4-Luc assay (in vitro model of VWMD)
Type: cell-based
Conditions: Homo sapiens, HEK-293T, 1 μg/mL tunicamycin, 7 hours, One Glo luminescence
Protocol: In order to test exemplary compounds of the invention in a cellular context, a stable VWMD cell line was first constructed. The ATF4 reporter was prepared by fusing the human full-length ATF4 5′-UTR (NCBI Accession No. BC022088.2) in front of the firefly luciferase (FLuc) coding sequence lacking the initiator methionine as described in Sidrauski et al (eLife 2013). The construct was used to produce recombinant retroviruses using standard methods and the resulting viral supernatant was used to transduce HEK293T cells, which were then subsequently selected with puromycin to generate a stable cell line.
HEK293T cells carrying the ATF4 luciferase reporter were plated on polylysine coated 384-well plates (Greiner Bio-one) at 30,000 cells per well. Cells were treated the next day with 1 μg/mL tunicamycin and 200 nM of a compound of Formula (I) for 7 hours. Luminescence was measured using One Glo (Promega) as specified by the manufacturer. Cells were maintained in DMEM with L-glutamine supplemented with 10% heat-inactivated FBS (Gibco) and Antibiotic-Antimycotic solution (Gibco).
Table 2 below summarizes the EC50 data obtained using the ATF4-Luc assay for exemplary compounds of the invention.

Structure (SMILES) | EC50 [µM]
Cc1ccc(Oc2nnc(C34CC(NC(=O)COc5ccc(Cl)c(F)c5)(C3)C4)o2)cc1C [Compound 130, 2-(4-chloro-3-fluorophenoxy)-N-{3-[5-(3,4-dimethylphenoxy)-1,3,4-oxadiazol-2-yl]bicyclo[1.1.1]pentan-1-yl}acetamide] | 0.05 to 0.25
O=C(COc1ccc(Cl)c(F)c1)NC12CC(c3nnc(Oc4ccc(C(F)(F)F)cc4)o3)(C1)C2 [Compound 131, 2-(4-chloro-3-fluorophenoxy)-N-(3-{5-[4-(trifluoromethyl)phenoxy]-1,3,4-oxadiazol-2-yl}bicyclo[1.1.1]pentan-1-yl)acetamide] | < 0.05
O=C(COc1ccc(Cl)c(F)c1)NC12CC(c3nnc(COc4ccc(Cl)cc4)[nH]3)(C1)C2 [Compound 132, 2-(4-chloro-3-fluorophenoxy)-N-(3-{5-[(4-chlorophenoxy)methyl]-4H-1,2,4-triazol-3-yl}bicyclo[1.1.1]pentan-1-yl)acetamide] | < 0.05
O=C(COc1ccc2c(c1)OC(F)(F)O2)NC12CC(c3nnc(COc4ccc(Cl)c(F)c4)o3)(C1)C2 [Compound 133, N-(3-{5-[(4-chloro-3-fluorophenoxy)methyl]-1,3,4-oxadiazol-2-yl}bicyclo-[1.1.1]pentan-1-yl)-2-[(2,2-difluoro-2H-1,3-benzodioxol-5-yl)oxy]acetamide] | < 0.05
Cc1ccccc1Oc1nnc(C23CC(NC(=O)COc4ccc(Cl)c(F)c4)(C2)C3)o1 [Compound 134, 2-(4-chloro-3-fluorophenoxy)-N-{3-[5-(2-methylphenoxy)-1,3,4-oxadiazol-2-yl]bicyclo[1.1.1]pentan-1-yl}acetamide] | 0.25 to 1
Cc1cccc(Oc2nnc(C34CC(NC(=O)COc5ccc(Cl)c(F)c5)(C3)C4)o2)c1 [Compound 135, 2-(4-chloro-3-fluorophenoxy)-N-{3-[5-(3-methylphenoxy)-1,3,4-oxadiazol-2-yl]bicyclo[1.1.1]pentan-1-yl}acetamide] | 0.05 to 0.25
COc1cccc(Oc2nnc(C34CC(NC(=O)COc5ccc(Cl)c(F)c5)(C3)C4)o2)c1 [Compound 136, 2-(4-chloro-3-fluorophenoxy)-N-{3-[5-(3-methoxyphenoxy)-1,3,4-oxadiazol-2-yl]bicyclo[1.1.1]pentan-1-yl}acetamide] | 0.05 to 0.25
O=C(COc1ccc(Cl)c(F)c1)NC12CC(c3nnc(Oc4ccccc4F)o3)(C1)C2 [Compound 137, 2-(4-chloro-3-fluorophenoxy)-N-{3-[5-(2-fluorophenoxy)-1,3,4-oxadiazol-2-yl]bicyclo[1.1.1]pentan-1-yl}acetamide] | 0.25 to 1
O=C(COc1ccc(Cl)c(F)c1)NC12CC(c3nnc(Oc4cccc(F)c4)o3)(C1)C2 [Compound 138, 2-(4-chloro-3-fluorophenoxy)-N-{3-[5-(3-fluorophenoxy)-1,3,4-oxadiazol-2-yl]bicyclo[1.1.1]pentan-1-yl}acetamide] | 0.05 to 0.25
O=C(COc1ccc(Cl)c(F)c1)NC12CC(c3nnc(Oc4cccc(C(F)(F)F)c4)o3)(C1)C2 [Compound 139, 2-(4-chloro-3-fluorophenoxy)-N-(3-{5-[3-(trifluoromethyl)phenoxy]-1,3,4-oxadiazol-2-yl}bicyclo[1.1.1]pentan-1-yl)acetamide] | < 0.05
O=C(COc1ccc(Cl)c(F)c1)NC12CC(c3nnc(COc4cncc(F)c4)o3)(C1)C2 [Compound 140, 2-(4-chloro-3-fluorophenoxy)-N-[3-(5-{[(5-fluoropyridin-3-yl)oxy]methyl}-1,3,4-oxadiazol-2-yl)bicyclo[1.1.1]pentan-1-yl]acetamide] | 0.05 to 0.25
O=C(COc1ccc(Cl)c(F)c1)NC12CC(c3nnc(COc4ccc(C(F)(F)F)nc4)o3)(C1)C2 [Compound 141, 2-(4-chloro-3-fluorophenoxy)-N-{3-[5-({[6-(trifluoromethyl)pyridin-3-yl]oxy}methyl)-1,3,4-oxadiazol-2-yl]bicyclo[1.1.1]pentan-1-yl}acetamide] | 0.05 to 0.25
COc1ccc(OCc2nnc(C34CC(NC(=O)COc5ccc(Cl)c(F)c5)(C3)C4)o2)cn1 [Compound 142, 2-(4-chloro-3-fluorophenoxy)-N-[3-(5-{[(6-methoxypyridin-3-yl)oxy]methyl}-1,3,4-oxadiazol-2-yl)bicyclo[1.1.1]pentan-1-yl]acetamide] | < 0.05
Cc1cncc(OCc2nnc(C34CC(NC(=O)COc5ccc(Cl)c(F)c5)(C3)C4)o2)c1 [Compound 143, 2-(4-chloro-3-fluorophenoxy)-N-[3-(5-{[(5-methylpyridin-3-yl)oxy]methyl}-1,3,4-oxadiazol-2-yl)bicyclo[1.1.1]pentan-1-yl]acetamide] | 0.25 to 1
N#Cc1cncc(OCc2nnc(C34CC(NC(=O)COc5ccc(Cl)c(F)c5)(C3)C4)o2)c1 [Compound 144, 2-(4-chloro-3-fluorophenoxy)-N-[3-(5-{[(5-cyanopyridin-3-yl)oxy]methyl}-1,3,4-oxadiazol-2-yl)bicyclo[1.1.1]pentan-1-yl]acetamide] | > 2
Cc1ncc(OCc2nnc(C34CC(NC(=O)COc5ccc(Cl)c(F)c5)(C3)C4)o2)cc1Cl [Compound 145, 2-(4-chloro-3-fluorophenoxy)-N-[3-(5-{[(5-chloro-6-methylpyridin-3-yl)oxy]methyl}-1,3,4-oxadiazol-2-yl)bicyclo[1.1.1]pentan-1-yl]acetamide] | 0.05 to 0.25
Cc1ccc(OCc2nnc(C34CC(NC(=O)COc5ccc(Cl)c(F)c5)(C3)C4)o2)cn1 [Compound 146, 2-(4-chloro-3-fluorophenoxy)-N-[3-(5-{[(6-methylpyridin-3-yl)oxy]methyl}-1,3,4-oxadiazol-2-yl)bicyclo[1.1.1]pentan-1-yl]acetamide] | 0.25 to 1
CC(C)Oc1ccc(OCc2nnc(C34CC(NC(=O)COc5ccc(Cl)c(F)c5)(C3)C4)o2)cn1 [Compound 147, 2-(4-chloro-3-fluorophenoxy)-N-(3-{5-[({6-[(propan-2-yl)oxy]pyridin-3-yl}oxy)methyl]-1,3,4-oxadiazol-2-yl}bicyclo[1.1.1]pentan-1-yl)acetamide] | 1 to 2
O=C(COc1ccc(Cl)c(F)c1)NC12CC(c3nnc(COc4cncc(Cl)c4)o3)(C1)C2 [Compound 148, 2-(4-chloro-3-fluorophenoxy)-N-[3-(5-{[(5-chloropyridin-3-yl)oxy]methyl}-1,3,4-oxadiazol-2-yl)bicyclo[1.1.1]pentan-1-yl]acetamide] | 0.05 to 0.25
O=C(COc1ccc(Cl)c(F)c1)NC12CC(c3nnc(COc4cnc5cc[nH]c5c4)o3)(C1)C2 [Compound 149, 2-(4-chloro-3-fluorophenoxy)-N-[3-(5-{[(1H-pyrrolo[3,2-b]pyridin-6-yl)oxy]methyl}-1,3,4-oxadiazol-2-yl)bicyclo[1.1.1]pentan-1-yl]acetamide] | 1 to 2
O=C(COc1ccc(Cl)c(F)c1)NC12CC(c3nnc(COc4ccc(C5CC5)nc4)o3)(C1)C2 [Compound 150, 2-(4-chloro-3-fluorophenoxy)-N-[3-(5-{[(6-cyclopropylpyridin-3-yl)oxy]methyl}-1,3,4-oxadiazol-2-yl)bicyclo[1.1.1]pentan-1-yl]acetamide] | 1 to 2
COc1ccc(OCc2nnc(C34CC(NC(=O)COc5ccc(Cl)c(F)c5)(C3)C4)o2)c(C)n1 [Compound 151, 2-(4-chloro-3-fluorophenoxy)-N-[3-(5-{[(6-methoxy-2-methylpyridin-3-yl)oxy]methyl}-1,3,4-oxadiazol-2-yl)bicyclo[1.1.1]pentan-1-yl]acetamide] | 1 to 2
O=C(COc1ccc(Cl)c(F)c1)NC12CC(c3nnc(COc4cnc5ccoc5c4)o3)(C1)C2 [Compound 152, 2-(4-chloro-3-fluorophenoxy)-N-[3-(5-{[(furo[3,2-b]pyridin-6-yl)oxy]methyl}-1,3,4-oxadiazol-2-yl)bicyclo[1.1.1]pentan-1-yl]acetamide] | 1 to 2
CCc1nc(C)ccc1OCc1nnc(C23CC(NC(=O)COc4ccc(Cl)c(F)c4)(C2)C3)o1 [Compound 153, 2-(4-chloro-3-fluorophenoxy)-N-[3-(5-{[(2-ethyl-6-methylpyridin-3-yl)oxy]methyl}-1,3,4-oxadiazol-2-yl)bicyclo[1.1.1]pentan-1-yl]acetamide] | > 2
CC(C)c1ccc(OCc2nnc(C34CC(NC(=O)COc5ccc(Cl)c(F)c5)(C3)C4)o2)cn1 [Compound 154, 2-(4-chloro-3-fluorophenoxy)-N-{3-[5-({[6-(propan-2-yl)pyridin-3-yl]oxy}methyl)-1,3,4-oxadiazol-2-yl]bicyclo[1.1.1]pentan-1-yl}acetamide] | > 2
COc1ncc(OCc2nnc(C34CC(NC(=O)COc5ccc(Cl)c(F)c5)(C3)C4)o2)cc1C [Compound 155, 2-(4-chloro-3-fluorophenoxy)-N-[3-(5-{[(6-methoxy-5-methylpyridin-3-yl)oxy]methyl}-1,3,4-oxadiazol-2-yl)bicyclo[1.1.1]pentan-1-yl]acetamide] | 0.25 to 1
Cc1cc(OCc2nnc(C34CC(NC(=O)COc5ccc(Cl)c(F)c5)(C3)C4)o2)cnc1C#N [Compound 156, 2-(4-chloro-3-fluorophenoxy)-N-[3-(5-{[(6-cyano-5-methylpyridin-3-yl)oxy]methyl}-1,3,4-oxadiazol-2-yl)bicyclo[1.1.1]pentan-1-yl]acetamide] | 1 to 2
N#Cc1ccc(OCc2nnc(C34CC(NC(=O)COc5ccc(Cl)c(F)c5)(C3)C4)o2)cn1 [Compound 157, 2-(4-chloro-3-fluorophenoxy)-N-[3-(5-{[(6-cyanopyridin-3-yl)oxy]methyl}-1,3,4-oxadiazol-2-yl)bicyclo[1.1.1]pentan-1-yl]acetamide] | 0.25 to 1
